Test results reported in US11547697B2, “Heterocyclic compounds and uses thereof” (MILLENNIUM PHARMACEUTICALS, INC., priority 2009, dated 2023).
Like-named read-outs stand apart in the source and are kept apart here.

How the values were obtained:
Format in all cases: biochemical
p110γ = p110γ (Homo sapiens (Human), UniProt P48736); assay: PI 3-Kinase (human) HTRF assay, p110γ
p110β/p85α = p110β/p85α (Homo sapiens (Human), UniProt P42338); assay: PI 3-Kinase (human) HTRF assay, p110β/p85α
p110δ/p85α = p110δ/p85α (Homo sapiens (Human), UniProt O00329); assay: PI 3-Kinase (human) HTRF assay, p110δ/p85α
p110α/p85α = p110α/p85α (Homo sapiens (Human), UniProt P42336); assay: PI 3-Kinase (human) HTRF assay, p110α/p85α
Experimental: An exemplary system is PI 3-Kinase (human) HTRF™ Assay from Upstate. […] Briefly, the assay is a time resolved FRET assay that indirectly measures PIP3 product formed by the activity of a PI3-K. The kinase reaction is performed in a microtitre plate (e.g., a 384 well microtitre plate). The total reaction volume is approximately 20 ul per well. In the first step, each well receives 2 ul of test compound in 20% dimethylsulphoxide resulting in a 2% DMSO final concentration. Next, approximately 14.5 ul of a kinase/PIP2 mixture (diluted in 1× reaction buffer) is added per well for a final concentration of 0.25-0.3 ug/ml kinase and 10 μM PIP2. The plate is sealed and incubated for 15 minutes at room temperature. To start the reaction, 3.5 ul of ATP (diluted in 1× reaction buffer) is added per well for a final concentration of 10 μM ATP. The plate is sealed and incubated for 1 hour at room temperature. The reaction is stopped by adding 5 ul of Stop Solution per well and then 5 ul of Detection Mix is added per well. The plate is sealed, incubated for 1 hour at room temperature, and then read on an appropriate plate reader. Data is analyzed and IC50s are generated using GraphPad Prism 5. […] For PI3K α, β, δ, and γ, the nM concentration of inhibitor to reach IC50 is provided.

[1] = in vitro, read-out: PI3K γ IC50
[2] = in vitro, read-out: PI3K δ IC50
[3] = in vitro, read-out: PI3K α IC50
[4] = in vitro, read-out: PI3K β IC50

p110γ, sequence (P48736 whole entry): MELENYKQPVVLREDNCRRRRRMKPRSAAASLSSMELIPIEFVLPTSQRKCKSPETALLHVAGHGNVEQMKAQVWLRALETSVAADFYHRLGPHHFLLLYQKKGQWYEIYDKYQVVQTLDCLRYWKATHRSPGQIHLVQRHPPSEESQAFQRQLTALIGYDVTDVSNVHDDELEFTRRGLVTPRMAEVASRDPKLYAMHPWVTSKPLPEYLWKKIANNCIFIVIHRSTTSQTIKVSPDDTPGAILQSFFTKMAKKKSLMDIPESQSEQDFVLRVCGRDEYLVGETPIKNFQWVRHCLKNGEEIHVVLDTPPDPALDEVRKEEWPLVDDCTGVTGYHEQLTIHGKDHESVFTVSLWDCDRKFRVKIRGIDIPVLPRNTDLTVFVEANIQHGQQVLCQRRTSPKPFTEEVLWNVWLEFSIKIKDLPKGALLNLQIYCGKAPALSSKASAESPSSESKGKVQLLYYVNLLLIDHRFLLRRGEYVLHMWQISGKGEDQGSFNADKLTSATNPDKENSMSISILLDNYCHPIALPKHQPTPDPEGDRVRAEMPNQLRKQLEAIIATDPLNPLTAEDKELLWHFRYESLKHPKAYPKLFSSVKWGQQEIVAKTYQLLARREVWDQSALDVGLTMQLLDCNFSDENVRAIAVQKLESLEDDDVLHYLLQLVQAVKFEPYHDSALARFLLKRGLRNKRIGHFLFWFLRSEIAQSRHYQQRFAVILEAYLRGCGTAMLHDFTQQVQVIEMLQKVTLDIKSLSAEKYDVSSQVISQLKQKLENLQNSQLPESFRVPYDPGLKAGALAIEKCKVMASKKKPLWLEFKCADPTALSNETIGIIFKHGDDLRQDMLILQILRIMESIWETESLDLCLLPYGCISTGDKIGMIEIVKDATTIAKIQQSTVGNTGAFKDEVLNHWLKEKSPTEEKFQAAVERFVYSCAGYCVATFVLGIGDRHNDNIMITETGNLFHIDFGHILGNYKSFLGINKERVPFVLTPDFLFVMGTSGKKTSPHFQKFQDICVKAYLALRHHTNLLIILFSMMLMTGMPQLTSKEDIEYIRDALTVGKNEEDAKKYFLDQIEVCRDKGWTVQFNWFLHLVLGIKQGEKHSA
p110β/p85α, sequence (P42338 whole entry): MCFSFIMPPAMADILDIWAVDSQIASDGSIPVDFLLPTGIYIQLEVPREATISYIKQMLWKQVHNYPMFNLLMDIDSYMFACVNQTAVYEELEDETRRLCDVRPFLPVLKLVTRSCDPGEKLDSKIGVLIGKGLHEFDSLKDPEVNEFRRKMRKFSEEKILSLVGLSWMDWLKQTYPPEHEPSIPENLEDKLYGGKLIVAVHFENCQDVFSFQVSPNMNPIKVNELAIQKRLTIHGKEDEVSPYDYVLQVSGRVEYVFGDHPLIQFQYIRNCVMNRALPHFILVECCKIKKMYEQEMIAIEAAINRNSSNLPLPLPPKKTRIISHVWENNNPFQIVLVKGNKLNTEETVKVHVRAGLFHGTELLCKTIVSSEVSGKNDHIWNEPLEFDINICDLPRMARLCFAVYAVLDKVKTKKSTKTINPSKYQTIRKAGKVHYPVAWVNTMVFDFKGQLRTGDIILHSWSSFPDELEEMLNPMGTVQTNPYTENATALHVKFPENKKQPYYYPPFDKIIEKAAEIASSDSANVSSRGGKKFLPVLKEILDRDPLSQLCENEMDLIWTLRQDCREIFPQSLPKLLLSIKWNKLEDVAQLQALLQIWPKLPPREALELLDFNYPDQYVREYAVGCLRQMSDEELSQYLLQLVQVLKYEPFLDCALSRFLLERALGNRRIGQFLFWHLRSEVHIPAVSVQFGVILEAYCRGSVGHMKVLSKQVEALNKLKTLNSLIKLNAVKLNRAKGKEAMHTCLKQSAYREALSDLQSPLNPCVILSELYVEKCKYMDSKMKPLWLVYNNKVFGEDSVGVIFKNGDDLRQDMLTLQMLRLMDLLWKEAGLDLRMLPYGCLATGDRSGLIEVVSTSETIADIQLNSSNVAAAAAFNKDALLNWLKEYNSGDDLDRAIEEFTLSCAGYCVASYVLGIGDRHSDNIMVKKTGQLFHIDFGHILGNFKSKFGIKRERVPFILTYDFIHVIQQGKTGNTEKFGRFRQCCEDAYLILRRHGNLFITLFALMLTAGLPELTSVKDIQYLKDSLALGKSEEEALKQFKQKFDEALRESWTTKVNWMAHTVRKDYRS
p110β/p85α, sequence (P27986 whole entry partner): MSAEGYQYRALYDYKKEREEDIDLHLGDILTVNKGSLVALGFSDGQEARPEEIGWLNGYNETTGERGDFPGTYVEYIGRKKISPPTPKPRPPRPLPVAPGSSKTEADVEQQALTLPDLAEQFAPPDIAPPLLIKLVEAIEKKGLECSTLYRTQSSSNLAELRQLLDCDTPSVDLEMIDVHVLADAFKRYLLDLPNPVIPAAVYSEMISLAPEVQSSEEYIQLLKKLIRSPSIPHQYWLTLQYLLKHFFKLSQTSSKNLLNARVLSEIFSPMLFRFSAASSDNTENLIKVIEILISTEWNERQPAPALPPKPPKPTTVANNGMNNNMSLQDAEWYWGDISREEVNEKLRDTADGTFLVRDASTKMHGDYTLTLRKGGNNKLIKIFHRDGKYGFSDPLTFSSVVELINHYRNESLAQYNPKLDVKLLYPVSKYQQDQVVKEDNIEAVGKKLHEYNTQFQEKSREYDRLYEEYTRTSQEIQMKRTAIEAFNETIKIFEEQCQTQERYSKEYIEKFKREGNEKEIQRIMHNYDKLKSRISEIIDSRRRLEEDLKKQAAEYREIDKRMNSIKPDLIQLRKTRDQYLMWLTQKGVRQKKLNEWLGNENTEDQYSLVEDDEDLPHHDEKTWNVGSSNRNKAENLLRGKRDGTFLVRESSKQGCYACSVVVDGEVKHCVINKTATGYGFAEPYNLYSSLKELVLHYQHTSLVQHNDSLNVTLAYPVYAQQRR
p110α/p85α, sequence (P42336 whole entry): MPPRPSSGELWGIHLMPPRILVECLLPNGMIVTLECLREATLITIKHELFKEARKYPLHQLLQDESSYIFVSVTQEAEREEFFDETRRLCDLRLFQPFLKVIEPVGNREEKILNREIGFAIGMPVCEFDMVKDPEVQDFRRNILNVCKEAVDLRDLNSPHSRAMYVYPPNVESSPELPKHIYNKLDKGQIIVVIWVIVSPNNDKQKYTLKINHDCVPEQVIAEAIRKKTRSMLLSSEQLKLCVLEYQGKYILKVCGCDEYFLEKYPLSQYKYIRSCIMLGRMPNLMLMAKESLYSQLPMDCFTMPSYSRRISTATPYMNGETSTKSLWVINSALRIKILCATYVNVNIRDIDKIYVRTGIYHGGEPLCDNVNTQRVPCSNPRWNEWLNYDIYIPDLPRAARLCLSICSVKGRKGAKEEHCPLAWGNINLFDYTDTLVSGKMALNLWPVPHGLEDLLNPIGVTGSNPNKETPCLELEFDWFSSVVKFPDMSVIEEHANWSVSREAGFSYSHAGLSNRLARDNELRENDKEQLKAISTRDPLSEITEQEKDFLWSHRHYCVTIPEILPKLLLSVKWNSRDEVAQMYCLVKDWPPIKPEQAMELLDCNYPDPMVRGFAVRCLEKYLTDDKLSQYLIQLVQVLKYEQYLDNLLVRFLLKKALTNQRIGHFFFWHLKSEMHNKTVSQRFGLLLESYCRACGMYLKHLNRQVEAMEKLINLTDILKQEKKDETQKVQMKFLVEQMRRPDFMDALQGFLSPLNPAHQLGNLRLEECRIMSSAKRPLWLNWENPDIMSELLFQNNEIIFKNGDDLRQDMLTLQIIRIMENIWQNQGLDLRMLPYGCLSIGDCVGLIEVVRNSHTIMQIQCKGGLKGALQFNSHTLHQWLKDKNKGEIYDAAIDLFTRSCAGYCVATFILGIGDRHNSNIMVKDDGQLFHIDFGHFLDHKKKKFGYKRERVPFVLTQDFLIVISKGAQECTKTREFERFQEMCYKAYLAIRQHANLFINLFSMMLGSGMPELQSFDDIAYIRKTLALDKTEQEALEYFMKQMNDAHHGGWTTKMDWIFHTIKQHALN
p110α/p85α, sequence (P27986 whole entry partner): as the sequence (P27986 whole entry partner) above
p110δ/p85α, sequence (O00329 whole entry): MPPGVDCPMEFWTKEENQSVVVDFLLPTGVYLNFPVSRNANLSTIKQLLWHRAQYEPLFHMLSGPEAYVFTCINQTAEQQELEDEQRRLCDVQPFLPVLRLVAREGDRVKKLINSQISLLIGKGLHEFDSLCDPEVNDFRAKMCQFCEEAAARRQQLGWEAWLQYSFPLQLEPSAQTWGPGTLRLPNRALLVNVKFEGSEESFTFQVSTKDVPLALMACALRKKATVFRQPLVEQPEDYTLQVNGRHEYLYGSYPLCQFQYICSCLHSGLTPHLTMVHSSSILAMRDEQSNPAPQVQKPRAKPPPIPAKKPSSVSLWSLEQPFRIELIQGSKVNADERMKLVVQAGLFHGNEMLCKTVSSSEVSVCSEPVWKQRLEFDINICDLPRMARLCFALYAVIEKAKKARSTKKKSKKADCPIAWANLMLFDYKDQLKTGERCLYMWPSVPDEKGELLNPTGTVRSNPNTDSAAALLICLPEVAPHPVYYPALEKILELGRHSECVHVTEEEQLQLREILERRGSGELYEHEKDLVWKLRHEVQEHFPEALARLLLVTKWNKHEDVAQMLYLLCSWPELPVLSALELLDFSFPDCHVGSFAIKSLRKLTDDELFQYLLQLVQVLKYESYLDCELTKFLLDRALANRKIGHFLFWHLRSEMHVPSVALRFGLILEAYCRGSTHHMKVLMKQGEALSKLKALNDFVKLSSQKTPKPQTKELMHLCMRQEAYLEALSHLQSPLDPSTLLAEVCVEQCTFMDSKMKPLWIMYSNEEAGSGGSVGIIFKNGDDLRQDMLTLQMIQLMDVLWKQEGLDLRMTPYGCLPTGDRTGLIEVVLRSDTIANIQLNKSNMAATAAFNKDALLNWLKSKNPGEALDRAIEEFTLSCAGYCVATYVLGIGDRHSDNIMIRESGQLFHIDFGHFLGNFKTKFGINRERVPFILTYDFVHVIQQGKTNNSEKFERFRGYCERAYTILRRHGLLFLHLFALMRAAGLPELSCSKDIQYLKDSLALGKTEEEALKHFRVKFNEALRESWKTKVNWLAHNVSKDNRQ
p110δ/p85α, sequence (P27986 whole entry partner): as the sequence (P27986 whole entry partner) above

Compound	IC50 (p110γ; read-out: PI3K γ IC50) [nM]	IC50 (p110β/p85α; read-out: PI3K β IC50) [nM]	IC50 (p110δ/p85α; read-out: PI3K δ IC50) [nM]	IC50 (p110α/p85α; read-out: PI3K α IC50) [nM]	other results
Nc1nsc2cc(-c3ccc4nccc(-c5ccncc5)c4c3)ccc12 [compound 13]	< 1000	< 1000	< 1000	< 100	
Nc1nc2cccc(-c3ccc4nccc(-c5ccncc5)c4c3)c2s1 [compound 17]	< 100	< 1000	< 1000	< 100	
Nc1nc2cc(-c3ccc4nccc(-c5cn[nH]c5)c4c3)ccc2o1 [compound 20]		< 100	< 100	< 100	
CN1CCN(c2ccnc3ccc(-c4ccc5oc(N)nc5c4)cc23)CC1 [compound 21]	< 10000	< 10000	< 10000	< 1000	
CN1CCN(c2ncnc3ccc(-c4ccc5oc(N)nc5c4)cc23)CC1 [compound 23]	< 100	< 1000	< 10000	< 100	
Nc1nc2cc(-c3ccc4ncnc(NC5CCOCC5)c4c3)ccc2o1 [compound 24]	< 100	< 1000	< 100	< 100	
Nc1nc2cc(-c3ccc4nccc(CCN5CCOCC5)c4c3)ccc2o1 [compound 27]	< 100		< 10000	< 1000	
Nc1nc2cc(-c3ccc4nccc(N5CCOCC5)c4c3)ccc2o1 [compound 28]	< 100		< 1000	< 100	
Nc1nc2cc(-c3ccc4ncnc(N5CCC(O)CC5)c4c3)ccc2o1 [compound 29]	< 100		< 100	< 100	
CN1CCN(c2cc(-c3ccnc4ccc(-c5ccc6oc(N)nc6c5)cc34)ccn2)CC1 [compound 30]	< 100		< 100	< 100	
Nc1nc2cc(-c3ccc4nccc(-c5cccnc5)c4c3)ccc2o1 [compound 31]	< 100		< 100	< 100	
Nc1nc2cc(-c3ccc4nccc(NCCN5CCOCC5)c4c3)ccc2o1 [compound 33]	< 1000		< 1000	< 100	
CN1CCC(Oc2ncnc3ccc(-c4ccc5oc(N)nc5c4)cc23)CC1 [compound 34]	< 100		< 1000	< 100	
Nc1nc2cc(-c3ccc4ncc(-c5cccnc5)n4c3)ccc2o1 [compound 37]	< 100		< 100	< 100	
Nc1nc2cc(-c3ccc4ncc(-c5cn[nH]c5)n4c3)ccc2o1 [compound 38]	< 100		< 100	< 100	
Nc1nc2cc(-c3ccc4ncc(C#CC5CC5)n4c3)ccc2o1 [compound 39]	< 100		< 100	< 100	
CN1CCN(c2cc(-c3cnc4ccc(-c5ccc6oc(N)nc6c5)cn34)ccn2)CC1 [compound 43]	< 100		< 100	< 100	
Nc1nc2cc(-c3ccc4ncc(-c5cccnc5)n4n3)ccc2o1 [compound 58]	< 100	< 100	< 100	< 100	
Nc1nc2cc(-c3ccc4ncc(-c5cn[nH]c5)n4n3)ccc2o1 [compound 59]	< 100	< 100	< 1000	< 100	
Nc1nc2cc(-c3cn4c(-c5ccncc5)cnc4cn3)ccc2o1 [compound 68]	< 1000	< 10000	< 10000	< 100	
Nc1nc2cc(-c3cn4c(-c5cn[nH]c5)cnc4cn3)ccc2o1 [compound 69]	< 1000	< 10000	< 10000	< 1000	
Nc1nc2cc(-c3ccc4nccc(-c5ccncc5)c4c3)ccc2s1 [compound 70]	< 100	< 100	< 100	< 100	
Nc1nc2cc(-c3ccc4ncc(-c5ccncc5)nc4c3)ccc2o1 [compound 71]	< 100	< 10000	< 1000	< 100	
Nc1nc2cc(-c3ccc4ncc(-c5cn[nH]c5)nc4c3)ccc2o1 [compound 78]	< 100	< 1000	< 1000	< 100	
CN1CCC(Nc2cnc3ccc(-c4ccc5oc(N)nc5c4)cc3n2)CC1 [compound 81]	< 1000	< 1000	< 100	< 100	
CC(=O)N1CCC(Nc2cnc3ccc(-c4ccc5oc(N)nc5c4)cc3n2)CC1 [compound 82]	< 100	< 10000	< 100	< 100	
Nc1nc2cc(-c3ccc4ncc(C(=O)NC5CCOCC5)n4c3)ccc2o1 [compound 83]	< 100	< 10000	< 100	< 100	

Compound	IC50 (p110γ; read-out: PI3K γ IC50) [nM]	IC50 (p110β/p85α; read-out: PI3K β IC50) [nM]	IC50 (p110δ/p85α; read-out: PI3K δ IC50) [nM]	IC50 (p110α/p85α; read-out: PI3K α IC50) [nM]	other results
CC(=O)N1CCN(c2cnc3ccc(-c4ccc5oc(N)nc5c4)cc3n2)CC1 [compound 85]	< 100	< 100	< 100	< 100	
CS(=O)(=O)N1CCN(c2cnc3ccc(-c4ccc5oc(N)nc5c4)cc3n2)CC1 [compound 86]	< 100	< 1000	< 1000	< 100	
CS(=O)(=O)N1CCC(Nc2ncnc3ccc(-c4ccc5oc(N)nc5c4)cc23)CC1 [compound 87]	< 100	< 1000	< 100	< 100	
Nc1nc2ccc(-c3ccc4ncc(C(=O)N5CCOCC5)n4c3)cc2s1 [compound 125]	< 1000		< 10000	< 1000	
Nc1nc2cc(-c3ccc4ncc(C(=O)Nc5cccnc5)n4c3)ccc2o1 [compound 190]	< 100		< 1000	< 100	
Nc1nc2cc(-c3ccc4ncc(N5CCN(C(=O)C6(N)CC6)CC5)nc4c3)ccc2o1 [compound 226]					IC50 (p110γ; [1]): < 10000 nM; IC50 (p110δ/p85α; [2]): < 10000 nM; IC50 (p110α/p85α; [3]): < 1000 nM
Nc1nc2cc(-c3ccc4ncc(N5CC(C(=O)N6CCOCC6)C5)nc4c3)ccc2o1 [compound 252]					IC50 (p110γ; [1]): < 10000 nM; IC50 (p110β/p85α; [4]): < 10000 nM; IC50 (p110δ/p85α; [2]): < 10000 nM
CN1CCN(C(=O)C2CN(c3cnc4ccc(-c5ccc6oc(N)nc6c5)cc4n3)C2)CC1 [compound 253]					IC50 (p110γ; [1]): < 10000 nM; IC50 (p110β/p85α; [4]): < 10000 nM; IC50 (p110δ/p85α; [2]): < 10000 nM
Nc1nc2cc(-c3ccc4ncn(CCCN5CCCC5)c(=O)c4c3)ccc2o1 [compound 271]					IC50 (p110β/p85α; [4]): < 10000 nM; IC50 (p110δ/p85α; [2]): < 10000 nM; IC50 (p110α/p85α; [3]): < 1000 nM
CCN(CC)CCCn1cnc2ccc(-c3ccc4oc(N)nc4c3)cc2c1=O [compound 281]					IC50 (p110δ/p85α; [2]): < 10000 nM; IC50 (p110α/p85α; [3]): < 1000 nM
Nc1nc2cc(-c3ccc4ncc(C(=O)NCCN5CCCC5)n4c3)ccc2o1 [compound 296]					IC50 (p110β/p85α; [4]): < 10000 nM; IC50 (p110δ/p85α; [2]): < 1000 nM; IC50 (p110α/p85α; [3]): < 1000 nM
CC1(C)CN(c2cnc3ccc(-c4ccc5oc(N)nc5c4)cc3n2)CCN1 [compound 336]					IC50 (p110β/p85α; [4]): < 1000 nM; IC50 (p110δ/p85α; [2]): < 10000 nM; IC50 (p110α/p85α; [3]): < 1000 nM
C[C@H]1CN(C2CN(c3cnc4ccc(-c5ccc6oc(N)nc6c5)cc4n3)C2)CCN1 [compound 350]					IC50 (p110β/p85α; [4]): < 10000 nM; IC50 (p110δ/p85α; [2]): < 10000 nM; IC50 (p110α/p85α; [3]): < 100 nM
Cc1c(-c2ccc3oc(N)nc3c2)ccc2ncc(N3CCN[C@@H](C)C3)nc12 [compound 374]					IC50 (p110β/p85α; [4]): < 100 nM; IC50 (p110δ/p85α; [2]): < 10000 nM; IC50 (p110α/p85α; [3]): < 1000 nM
COc1ncc(-c2ccc3ncc(C(=O)N4CCOCC4)n3c2)cc1NS(=O)(=O)c1ccccc1 [compound 420]					IC50 (p110γ; read-out: PI3K γ In Vitro IC50): < 1000 nM; IC50 (p110δ/p85α; read-out: PI3K δ In Vitro IC50): < 1000 nM; IC50 (p110α/p85α; read-out: PI3K α In Vitro IC50): < 100 nM
O=C(c1cnc2ccc(-c3cncc(NS(=O)(=O)c4ccccc4)c3)cn12)N1CCOCC1 [compound 424]					IC50 (p110γ; read-out: PI3K γ In Vitro IC50): < 1000 nM; IC50 (p110δ/p85α; read-out: PI3K δ In Vitro IC50): < 10000 nM; IC50 (p110α/p85α; read-out: PI3K α In Vitro IC50): < 1000 nM
O=C(c1cnc2ccc(-c3cncc(NS(=O)(=O)c4ccc(F)cc4F)c3)cn12)N1CCOCC1 [compound 425]					IC50 (p110γ; read-out: PI3K γ In Vitro IC50): < 100 nM; IC50 (p110δ/p85α; read-out: PI3K δ In Vitro IC50): < 1000 nM; IC50 (p110α/p85α; read-out: PI3K α In Vitro IC50): < 100 nM
O=C(c1cnc2ccc(-c3cccc(NS(=O)(=O)c4ccc(F)cc4F)c3)cn12)N1CCOCC1 [compound 454]					IC50 (p110γ; read-out: PI3K γ In Vitro IC50): < 10000 nM; IC50 (p110δ/p85α; read-out: PI3K δ In Vitro IC50): < 10000 nM; IC50 (p110α/p85α; read-out: PI3K α In Vitro IC50): < 10000 nM
Nc1nc2cc(-c3ccc4ncc(C(=O)N5CC[C@@H](F)C5)n4c3)ccc2o1 [compound 475]					IC50 (p110γ; read-out: PI3K γ In Vitro IC50): < 100 nM; IC50 (p110δ/p85α; read-out: PI3K δ In Vitro IC50): < 10000 nM; IC50 (p110α/p85α; read-out: PI3K α In Vitro IC50): < 100 nM
Nc1nc2cc(-c3ccc4ncc(C(=O)N5CC[C@@H](n6cccn6)C5)n4c3)ccc2o1 [compound 477]					IC50 (p110γ; read-out: PI3K γ In Vitro IC50): < 1000 nM; IC50 (p110δ/p85α; read-out: PI3K δ In Vitro IC50): < 10000 nM; IC50 (p110α/p85α; read-out: PI3K α In Vitro IC50): < 100 nM
Nc1nc2cc(-c3ccc4ncc(C(=O)N5CC(n6cccn6)C5)n4c3)ccc2o1 [compound 479]					IC50 (p110γ; read-out: PI3K γ In Vitro IC50): < 1000 nM; IC50 (p110δ/p85α; read-out: PI3K δ In Vitro IC50): < 10000 nM; IC50 (p110α/p85α; read-out: PI3K α In Vitro IC50): < 100 nM
C[C@H]1CCCN1C(=O)c1cnc2ccc(-c3ccc4oc(N)nc4c3)cn12 [compound 482]					IC50 (p110γ; read-out: PI3K γ In Vitro IC50): < 1000 nM; IC50 (p110δ/p85α; read-out: PI3K δ In Vitro IC50): < 10000 nM; IC50 (p110α/p85α; read-out: PI3K α In Vitro IC50): < 100 nM
O=C(c1cnc2ccc(-c3cnc4[nH]ncc4c3)cn12)N1CCOCC1 [compound 492]					IC50 (p110γ; read-out: PI3K γ In Vitro IC50): < 10000 nM; IC50 (p110β/p85α; read-out: PI3K β In Vitro IC50): < 10000 nM; IC50 (p110δ/p85α; read-out: PI3K δ In Vitro IC50): < 10000 nM
Nc1nc2cc(-c3ccc4ncc(C(=O)N5CCC(N6CCC(F)(F)C6)C5)n4c3)ccc2o1 (centres unmarked) [compound 500]					IC50 (p110γ; read-out: PI3K γ In Vitro IC50): < 10000 nM; IC50 (p110δ/p85α; read-out: PI3K δ In Vitro IC50): < 10000 nM; IC50 (p110α/p85α; read-out: PI3K α In Vitro IC50): < 1000 nM
Nc1nc2cc(-c3ccc4ncc(C(=O)N5CC(N6CCC(F)(F)C6)C5)n4c3)ccc2o1 [compound 502]					IC50 (p110γ; read-out: PI3K γ In Vitro IC50): < 1000 nM; IC50 (p110δ/p85α; read-out: PI3K δ In Vitro IC50): < 10000 nM; IC50 (p110α/p85α; read-out: PI3K α In Vitro IC50): < 100 nM
Nc1nc2cc(-c3ccc4ncc(C(=O)N5CC6CCC(C5)O6)n4c3)ccc2o1 [compound 504]					IC50 (p110γ; read-out: PI3K γ In Vitro IC50): < 100 nM; IC50 (p110β/p85α; read-out: PI3K β In Vitro IC50): < 10000 nM; IC50 (p110α/p85α; read-out: PI3K α In Vitro IC50): < 1000 nM
COc1ncc(-c2ccc3ncc(C(=O)N4CCOCC4)n3c2)c2cn[nH]c12 [compound 517]					IC50 (p110γ; read-out: PI3K γ In Vitro IC50): < 10000 nM; IC50 (p110δ/p85α; read-out: PI3K δ In Vitro IC50): < 10000 nM; IC50 (p110α/p85α; read-out: PI3K α In Vitro IC50): < 1000 nM
